Measurements from US6160004A, “C-10 carbon-substituted artemisinin-like trioxane compounds having antimalarial, antiproliferative and antitumor activities” (priority 1998, dated 2000).

Key:
COLO 205 = test: NCI 60 cell line panel screening assay (SRB), COLO 205; type: cell-based; conditions: Homo sapiens
HOP-92 = test: cells; type: cell-based; conditions: Homo sapiens, HOP-92, non-small cell lung cancer, 48 h
NCI-H226 = test: cells; type: cell-based; conditions: Homo sapiens, NCI-H226, 48 h, read-out: Log10 GI50 (converted)
SN12C = test: NCI 60 cell line panel screening assay (SRB), SN12C; type: cell-based; conditions: Homo sapiens, renal cancer, 48 h
OVCAR-8 = test: cells; type: cell-based; conditions: Homo sapiens
SK-MEL-28 = test: cells; type: cell-based; conditions: Homo sapiens, SK-MEL-28, melanoma, 48 h
HOP-62 = test: cells; type: cell-based; conditions: Homo sapiens, HOP-62, non-small cell lung cancer, 48 h
CAKI-1 = test: NCI 60 cell line panel screening assay (SRB), CAKI-1; type: cell-based; conditions: Homo sapiens
SF-268 = test: cells; type: cell-based; conditions: Homo sapiens, SF-268, CNS cancer, 48 h
SW-620 = test: NCI 60 cell line panel screening assay (SRB), SW-620; type: cell-based; conditions: Homo sapiens
NCI-H23 = test: cells; type: cell-based; conditions: Homo sapiens; NCI-H23, non-small cell lung cancer, 48 h; read-out: Log10 GI50 (converted)
HCT-15 = test: cells; type: cell-based; conditions: Homo sapiens, HCT-15, colon cancer, 48 h
PC-3 = test: cells; type: cell-based; conditions: Homo sapiens, PC-3, prostate cancer, 48 h
60 cell line panel = test: NCI 60 cell line panel, whole panel
SNB-75 = test: cells; type: cell-based; conditions: Homo sapiens; SNB-75, CNS cancer, 48 h; read-out: Log10 LC50 (converted)
K-562 = test: cells; type: cell-based; conditions: Homo sapiens
UACC-257 = test: cells; type: cell-based; conditions: Homo sapiens, UACC-257, 48 h
A498 = test: cells; type: cell-based; conditions: Homo sapiens, A498, renal cancer, 48 h
RPMI-8226 = test: NCI 60 cell line panel screening assay (SRB), RPMI-8226; type: cell-based; conditions: Homo sapiens
U251 = test: cells; type: cell-based; conditions: Homo sapiens, U-251, U251, CNS cancer, 48 h
SR = test: cells; type: cell-based; conditions: Homo sapiens, leukemia, 48 h
NCI-H322M = test: cells; conditions: Homo sapiens, 48 h
HS 578T = test: cells; type: cell-based; conditions: Homo sapiens, HS 578T, breast cancer, 48 h
SK-OV-3 = test: cells; type: cell-based; conditions: Homo sapiens
OVCAR-3 = test: cells; type: cell-based; conditions: Homo sapiens
MOLT-4 = conditions: MOLT-4, FIG. 6
MCF7 = test: cells; type: cell-based; conditions: Homo sapiens; MCF7, breast cancer, 48 h; read-out: Log10 LC50 (converted)
KM12 = test: cells; type: cell-based; conditions: Homo sapiens, KM12, colon cancer, 48 h
UACC-62 = test: cells; type: cell-based; conditions: Homo sapiens
SNB-19 = test: cells; type: cell-based; conditions: Homo sapiens, SNB-19, CNS cancer, 48 h
BT-549 = test: cells; type: cell-based; conditions: Homo sapiens, BT-549, breast cancer, 48 h
[1] = read-out: Log10 GI50 (converted)
[2] = read-out: Log10 LC50 (converted)

Compound `CC1CCC2C(C)C(CC(=O)c3cccc(C(=O)CC4OC5OC6(C)CCC7C(C)CCC(C4C)C57OO6)c3)OC3OC4(C)CCC1C32OO4` (stereo not drawn) [Dimer 39] has a CC50 (COLO 205; COLO 205, 48 h, read-out: Log10 LC50 (converted)) of over 100 µM, a GI50 (COLO 205; COLO 205, colon cancer, 48 h, read-out: Log10 GI50 (converted)) of over 100 µM and a GI50 (HOP-92; [1]) of over 100 µM. The CC50 (HOP-92; [2]) was over 100 µM, the GI50 (NCI-H226) was 29.5 µM and the GI50 (SN12C; [1]) was over 100 µM. The CC50 (SN12C; [2]) was over 100 µM, the IC (TGI) (SN12C; read-out: Log10 TGI) was over 100 µM and the IC (TGI) (OVCAR-8; OVCAR-8, 48 h, read-out: Log10 TGI) was over 100 µM. For the same compound, the GI50 (OVCAR-8; OVCAR-8, ovarian cancer, 48 h, read-out: Log10 GI50 (converted)) was over 100 µM, the CC50 (OVCAR-8; OVCAR-8, ovarian cancer, 48 h, read-out: Log10 LC50 (converted)) was over 100 µM and the GI50 (SK-MEL-28; [1]) was over 100 µM. For the same compound, the CC50 (SK-MEL-28; [2]) was over 100 µM, the IC (TGI) (SK-MEL-28; read-out: Log10 TGI) was over 100 µM and the GI50 (HOP-62; [1]) was over 100 µM. The LC50 (HOP-62; [2]) was over 100 µM, the CC50 (CAKI-1; CAKI-1, 48 h, read-out: Log10 LC50 (converted)) was over 100 µM and the GI50 (CAKI-1; CAKI-1, renal cancer, 48 h, read-out: Log10 GI50 (converted)) was over 100 µM. The IC (TGI) (CAKI-1; CAKI-1, renal cancer, 48 h, read-out: Log10 TGI (converted)) was over 100 µM, the GI50 (SF-268; [1]) was over 100 µM and the CC50 (SF-268; [2]) was over 100 µM. It also gave a GI50 (SW-620; SW-620, 48 h, read-out: Log10 GI50 (converted)) of over 100 µM, a CC50 (SW-620; SW-620, colon cancer, 48 h, read-out: Log10 LC50 (converted)) of over 100 µM and an IC (TGI) (SW-620; SW-620, colon cancer, 48 h, read-out: Log10 TGI) of over 100 µM. The GI50 (NCI-H23) was over 100 µM, the GI50 (HCT-15; [1]) was over 100 µM and the CC50 (HCT-15; [2]) was over 100 µM. It also gave a GI50 (PC-3; [1]) of over 100 µM, an LC50 (PC-3; [2]) of over 100 µM and an IC (TGI) (60 cell line panel; 60 cell, read-out: MG MID of Log10 TGI) of 100 µM. For the same compound, the CC50 (60 cell line panel; Homo sapiens, 60 cell, read-out: MG MID of Log10 LC50 (converted)) was 100 µM, the “Delta of Log10 TGI” value (60 cell line panel; panel) was 0.00 and the “Range of Log10 TGI” value (60 cell line panel; panel) was 0.00. For the same compound, the CC50 (SNB-75) was over 100 µM, the CC50 (K-562; K562, 48 h, read-out: Log10 LC50 (converted)) was over 100 µM and the GI50 (K-562; K562, K-562, leukemia, 48 h, read-out: Log10 GI50 (converted)) was over 100 µM. It also gave an IC (TGI) (UACC-257; read-out: Log10 TGI) of over 100 µM, a GI50 (UACC-257; [1]) of over 100 µM and a CC50 (UACC-257; [2]) of over 100 µM. The CC50 (A498; [2]) was over 100 µM, the IC (TGI) (A498; read-out: Log10 TGI) was over 100 µM and the CC50 (RPMI-8226; RPMI-8226, 48 h, read-out: Log10 LC50 (converted)) was over 100 µM. It also gave a GI50 (RPMI-8226; RPMI-8226, leukemia, 48 h, read-out: Log10 GI50 (converted)) of over 100 µM, an IC (TGI) (RPMI-8226; RPMI-8226, leukemia, 48 h, read-out: Log10 TGI) of over 100 µM and a GI50 (U251; [1]) of over 100 µM. The CC50 (U251; [2]) was over 100 µM, the GI50 (SR; [1]) was over 100 µM and the CC50 (SR; [2]) was over 100 µM. It also gave an IC (TGI) (SR; read-out: Log10 TGI) of over 100 µM, a GI50 (NCI-H322M; [1]) of over 100 µM and a CC50 (NCI-H322M; [2]) of over 100 µM. It also gave an IC (TGI) (NCI-H322M; read-out: Log10 TGI) of over 100 µM, a GI50 (HS 578T; [1]) of over 100 µM and a CC50 (HS 578T; [2]) of over 100 µM. The IC (TGI) (SK-OV-3; SK-OV-3, 48 h, read-out: Log10 TGI) was over 100 µM, the GI50 (SK-OV-3; SK-OV-3, ovarian cancer, 48 h, read-out: Log10 GI50 (converted)) was over 100 µM and the CC50 (SK-OV-3; SK-OV-3, ovarian cancer, 48 h, read-out: Log10 LC50 (converted)) was over 100 µM. The IC (TGI) (OVCAR-3; OVCAR-3, 48 h, read-out: Log10 TGI) was over 100 µM, the GI50 (OVCAR-3; OVCAR-3, ovarian cancer, 48 h, read-out: Log10 GI50 (converted)) was over 100 µM and the CC50 (OVCAR-3; OVCAR-3, ovarian cancer, 48 h, read-out: Log10 LC50 (converted)) was over 100 µM. The “concentration for cytostasis (PG 0)” value (MOLT-4) was “greater than 10^-4 M”, the CC50 (MCF7) was over 100 µM and the GI50 (KM12; [1]) was over 100 µM. The CC50 (KM12; [2]) was over 100 µM, the IC (TGI) (UACC-62; UACC-62, 48 h, read-out: Log10 TGI) was over 100 µM and the GI50 (UACC-62; UACC-62, melanoma, 48 h, read-out: Log10 GI50 (converted)) was over 100 µM. For the same compound, the LC50 (UACC-62; UACC-62, melanoma, 48 h, read-out: Log10 LC50 (converted)) was over 100 µM, the GI50 (SNB-19; [1]) was over 100 µM and the CC50 (SNB-19; [2]) was over 100 µM. It also gave an IC (TGI) (SNB-19; read-out: Log10 TGI) of over 100 µM, a GI50 (BT-549; [1]) of over 100 µM and a CC50 (BT-549; [2]) of over 100 µM.
